This note sets out measurements from patent publication US20220249413A1, “SWELL 1 MODULATORS FOR TREATMENT OF NON-ALCOHOLIC FATTY LIVER DISEASE, IMMUNE DEFICIENCIES, MALE INFERTILITY AND VASCULAR DISEASES” (priority 2019, published 2022).

This series can be described thus: Tolerability during chronic injection protocols. It is filed as in vivo, mouse. Conditions: daily injections for up to 8 weeks, 5 mg/kg i.p. The text has this: Patients Human islets and adipocytes were obtained and cultured as described previously (Zhang et al., Nat Cell Biol, 19, 504-517, 2017; Kang et al., Nature Communications, 9, 367, 2018). The Patients involved in the study were anonymous and information such as gender, age, HbA1c, glucose levels and BMI only were available to the research team. The study was approved and carried out as per the guidelines of the University of Iowa Institutional Review Board (IRB). Animals All experimental procedures involving mice were approved by the Institutional Animal Care and Use Committee of the University of Iowa and Washington University at St. Louis. All C57BL/6 mice involved in study were purchased from Charles River Labs. Both KK.Cg-Ay/J (KKA^y) and KK.Cg-Aa/J (KKA^a) mice involved in study were gender and age-matched mice obtained from Jackson Labs (Stock No: 002468) and bred up for experiments. The mice were fed ad libitum with either regular chow (RC) or high-fat diet (Research Diets, Inc., 60 kcal % fat) with free access to water and housed in a light-, temperature- and humidity-controlled room. For high-fat diet (HFD) studies, only male mice were used and were started on HFD regimen at the age of 6-9 weeks. For all experiments involving KKA^y and KKA^a mice, both males and females were used at approximately 50/50 ratio. […] Based on GFP fluorescence, viral transduction efficiency was ˜90%.

Turning to `CCCCC1(C2CCCC2)Cc2cc(OCCCC(=O)O)c(Cl)c(Cl)c2C1=O` (stereo not shown) [Smod1, 4-[(2-Butyl-6,7-dichloro-2-cyclopentyl-2,3-dihydro-1-oxo-1H-inden-5-yl)oxy]butanoic acid], the signs of toxicity result was “no overt signs of toxicity”.
